Reference: ChEMBL document CHEMBL5291721, “A preclinical secondary pharmacology resource illuminates target-adverse drug reaction associations of marketed drugs” (Nat Commun, 2023)

Key:
Androgen receptor = target: T1, Androgen receptor (Rattus norvegicus, UniProt P15207)
T1 sequence (P15207 whole entry): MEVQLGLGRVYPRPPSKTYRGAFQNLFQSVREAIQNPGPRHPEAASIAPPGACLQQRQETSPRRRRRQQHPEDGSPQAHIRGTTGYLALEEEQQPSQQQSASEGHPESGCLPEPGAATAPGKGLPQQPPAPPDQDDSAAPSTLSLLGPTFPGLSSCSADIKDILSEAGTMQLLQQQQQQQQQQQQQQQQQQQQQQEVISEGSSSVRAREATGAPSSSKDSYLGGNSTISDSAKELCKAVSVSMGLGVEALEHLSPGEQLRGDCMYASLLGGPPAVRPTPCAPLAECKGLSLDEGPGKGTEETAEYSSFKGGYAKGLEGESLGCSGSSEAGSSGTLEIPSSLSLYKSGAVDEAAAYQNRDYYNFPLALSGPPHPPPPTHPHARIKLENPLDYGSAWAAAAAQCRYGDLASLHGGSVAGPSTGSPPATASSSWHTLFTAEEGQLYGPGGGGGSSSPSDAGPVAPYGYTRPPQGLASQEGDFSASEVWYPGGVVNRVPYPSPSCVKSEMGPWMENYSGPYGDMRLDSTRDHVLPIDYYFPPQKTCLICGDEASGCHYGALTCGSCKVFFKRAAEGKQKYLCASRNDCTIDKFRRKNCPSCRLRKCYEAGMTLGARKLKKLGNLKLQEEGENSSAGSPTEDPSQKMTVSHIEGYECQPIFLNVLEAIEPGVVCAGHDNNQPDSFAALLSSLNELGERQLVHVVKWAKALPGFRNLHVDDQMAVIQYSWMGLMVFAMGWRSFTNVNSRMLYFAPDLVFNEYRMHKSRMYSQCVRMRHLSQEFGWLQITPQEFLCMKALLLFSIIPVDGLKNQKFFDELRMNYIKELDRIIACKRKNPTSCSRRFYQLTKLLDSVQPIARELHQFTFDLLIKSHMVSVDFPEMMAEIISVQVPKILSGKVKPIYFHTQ

[1] = target: Gamma-aminobutyric acid receptor subunit alpha-1/alpha-2/beta-2/gamma-2 (Homo sapiens, UniProt P14867+P18507+P47869+P47870); assay type: functional, cell-based
Chain of Gamma-aminobutyric acid receptor subunit alpha-1/alpha-2/beta-2/gamma-2 (P14867 whole entry): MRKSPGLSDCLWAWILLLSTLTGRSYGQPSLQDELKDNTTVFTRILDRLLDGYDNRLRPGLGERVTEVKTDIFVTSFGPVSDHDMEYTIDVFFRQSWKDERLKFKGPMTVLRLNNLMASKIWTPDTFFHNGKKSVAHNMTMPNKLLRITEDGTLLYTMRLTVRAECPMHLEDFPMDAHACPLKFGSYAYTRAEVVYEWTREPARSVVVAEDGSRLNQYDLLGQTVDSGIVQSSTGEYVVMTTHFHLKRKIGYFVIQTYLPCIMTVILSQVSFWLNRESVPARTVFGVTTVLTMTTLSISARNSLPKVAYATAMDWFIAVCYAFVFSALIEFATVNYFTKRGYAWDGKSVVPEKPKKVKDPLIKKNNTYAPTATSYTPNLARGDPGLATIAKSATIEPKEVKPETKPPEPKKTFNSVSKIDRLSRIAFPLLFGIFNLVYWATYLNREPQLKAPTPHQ
Chain of Gamma-aminobutyric acid receptor subunit alpha-1/alpha-2/beta-2/gamma-2 (P47870 whole entry): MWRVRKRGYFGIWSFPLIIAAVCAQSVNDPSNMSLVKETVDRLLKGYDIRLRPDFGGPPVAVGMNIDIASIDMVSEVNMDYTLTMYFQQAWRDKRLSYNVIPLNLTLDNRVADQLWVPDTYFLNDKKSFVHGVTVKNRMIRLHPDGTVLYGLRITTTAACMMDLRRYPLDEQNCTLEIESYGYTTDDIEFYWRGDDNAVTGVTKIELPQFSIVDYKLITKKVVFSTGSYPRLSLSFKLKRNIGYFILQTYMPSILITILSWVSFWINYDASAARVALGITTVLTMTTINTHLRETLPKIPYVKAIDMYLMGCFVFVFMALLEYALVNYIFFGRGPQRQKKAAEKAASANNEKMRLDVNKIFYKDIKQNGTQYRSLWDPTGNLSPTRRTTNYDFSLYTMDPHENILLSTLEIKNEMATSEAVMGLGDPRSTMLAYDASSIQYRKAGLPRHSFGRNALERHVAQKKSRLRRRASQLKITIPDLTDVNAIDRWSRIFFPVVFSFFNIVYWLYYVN
Chain of Gamma-aminobutyric acid receptor subunit alpha-1/alpha-2/beta-2/gamma-2 (P18507 whole entry): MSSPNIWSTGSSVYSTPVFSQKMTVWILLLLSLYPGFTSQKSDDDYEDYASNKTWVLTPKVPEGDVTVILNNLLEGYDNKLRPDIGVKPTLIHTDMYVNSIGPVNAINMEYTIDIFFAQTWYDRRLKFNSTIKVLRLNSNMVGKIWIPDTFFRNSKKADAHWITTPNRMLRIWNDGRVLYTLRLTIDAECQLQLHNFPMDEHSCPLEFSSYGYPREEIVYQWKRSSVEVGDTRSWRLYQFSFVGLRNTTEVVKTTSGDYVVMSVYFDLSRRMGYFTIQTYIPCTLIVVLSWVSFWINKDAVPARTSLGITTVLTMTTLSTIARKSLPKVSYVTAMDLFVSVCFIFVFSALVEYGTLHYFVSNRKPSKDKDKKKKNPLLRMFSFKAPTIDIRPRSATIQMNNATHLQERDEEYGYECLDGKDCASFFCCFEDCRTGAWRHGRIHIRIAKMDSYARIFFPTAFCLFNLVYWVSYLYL
Chain of Gamma-aminobutyric acid receptor subunit alpha-1/alpha-2/beta-2/gamma-2 (P47869 whole entry): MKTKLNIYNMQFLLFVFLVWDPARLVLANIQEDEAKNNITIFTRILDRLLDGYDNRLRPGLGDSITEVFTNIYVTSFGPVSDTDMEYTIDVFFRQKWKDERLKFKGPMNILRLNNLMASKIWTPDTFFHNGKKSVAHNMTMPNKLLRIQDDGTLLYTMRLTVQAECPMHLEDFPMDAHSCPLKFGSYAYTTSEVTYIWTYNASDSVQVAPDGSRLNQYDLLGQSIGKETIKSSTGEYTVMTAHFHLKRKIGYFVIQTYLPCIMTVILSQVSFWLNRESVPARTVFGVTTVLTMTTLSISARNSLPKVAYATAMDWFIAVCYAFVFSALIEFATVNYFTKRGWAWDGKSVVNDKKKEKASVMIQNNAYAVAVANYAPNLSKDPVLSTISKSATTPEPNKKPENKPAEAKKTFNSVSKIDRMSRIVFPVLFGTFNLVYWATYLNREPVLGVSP

[2] = target: Beta-3 adrenergic receptor (Homo sapiens, UniProt P13945)
Chain of Beta-3 adrenergic receptor (P13945 whole entry): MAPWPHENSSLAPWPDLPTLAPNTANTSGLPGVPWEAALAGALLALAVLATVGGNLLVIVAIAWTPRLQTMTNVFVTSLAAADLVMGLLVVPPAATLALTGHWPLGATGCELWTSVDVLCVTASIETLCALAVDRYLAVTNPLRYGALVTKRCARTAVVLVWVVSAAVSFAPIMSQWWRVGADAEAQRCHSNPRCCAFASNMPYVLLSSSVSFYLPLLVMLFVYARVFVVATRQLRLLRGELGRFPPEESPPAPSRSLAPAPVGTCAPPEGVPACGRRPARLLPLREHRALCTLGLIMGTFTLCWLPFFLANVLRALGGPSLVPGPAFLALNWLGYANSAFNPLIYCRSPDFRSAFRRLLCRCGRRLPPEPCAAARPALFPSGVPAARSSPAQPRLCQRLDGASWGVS

B1 bradykinin receptor = target: T2, B1 bradykinin receptor (Homo sapiens, UniProt P46663)
T2 sequence (P46663 whole entry): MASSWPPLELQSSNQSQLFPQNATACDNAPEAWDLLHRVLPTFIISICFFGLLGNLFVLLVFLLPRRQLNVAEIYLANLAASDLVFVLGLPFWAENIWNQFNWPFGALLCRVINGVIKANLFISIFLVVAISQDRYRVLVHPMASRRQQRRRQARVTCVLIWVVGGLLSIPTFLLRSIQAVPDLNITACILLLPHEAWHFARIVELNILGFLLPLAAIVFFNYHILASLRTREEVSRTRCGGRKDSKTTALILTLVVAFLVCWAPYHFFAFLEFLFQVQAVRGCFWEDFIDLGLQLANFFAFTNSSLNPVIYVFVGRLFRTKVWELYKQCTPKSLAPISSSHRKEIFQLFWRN

D(1A) dopamine receptor = D(1A) dopamine receptor (Homo sapiens, UniProt P21728)
Chain of D(1A) dopamine receptor (P21728 whole entry): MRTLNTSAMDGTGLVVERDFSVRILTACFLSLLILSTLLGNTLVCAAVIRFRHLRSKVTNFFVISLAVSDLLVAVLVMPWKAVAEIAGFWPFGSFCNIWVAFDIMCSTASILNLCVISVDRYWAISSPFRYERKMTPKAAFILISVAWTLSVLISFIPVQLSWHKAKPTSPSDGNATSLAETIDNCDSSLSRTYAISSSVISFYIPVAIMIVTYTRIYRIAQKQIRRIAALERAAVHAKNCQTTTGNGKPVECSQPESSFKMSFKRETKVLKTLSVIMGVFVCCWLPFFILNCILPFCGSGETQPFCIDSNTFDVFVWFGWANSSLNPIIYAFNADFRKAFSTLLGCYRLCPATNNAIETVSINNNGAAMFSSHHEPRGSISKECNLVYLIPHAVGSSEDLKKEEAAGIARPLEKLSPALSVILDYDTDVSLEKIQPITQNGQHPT

[3] = target: T3, Endothelin receptor type B (Homo sapiens, UniProt P24530)
T3 sequence (P24530 whole entry): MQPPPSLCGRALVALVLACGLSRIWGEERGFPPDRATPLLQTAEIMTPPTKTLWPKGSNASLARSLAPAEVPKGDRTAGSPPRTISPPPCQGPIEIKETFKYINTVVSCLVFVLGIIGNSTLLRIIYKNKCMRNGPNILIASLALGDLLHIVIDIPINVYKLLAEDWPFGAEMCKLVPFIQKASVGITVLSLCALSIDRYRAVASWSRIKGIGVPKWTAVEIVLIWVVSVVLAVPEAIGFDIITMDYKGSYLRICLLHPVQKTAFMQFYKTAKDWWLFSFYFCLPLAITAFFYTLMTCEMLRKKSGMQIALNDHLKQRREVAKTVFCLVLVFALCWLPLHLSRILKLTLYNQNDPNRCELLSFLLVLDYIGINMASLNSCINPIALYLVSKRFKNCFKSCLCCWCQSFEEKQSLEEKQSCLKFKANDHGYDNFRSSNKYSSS

Histamine H2 receptor = Histamine H2 receptor (Homo sapiens, UniProt P25021)
Chain of Histamine H2 receptor (P25021 whole entry): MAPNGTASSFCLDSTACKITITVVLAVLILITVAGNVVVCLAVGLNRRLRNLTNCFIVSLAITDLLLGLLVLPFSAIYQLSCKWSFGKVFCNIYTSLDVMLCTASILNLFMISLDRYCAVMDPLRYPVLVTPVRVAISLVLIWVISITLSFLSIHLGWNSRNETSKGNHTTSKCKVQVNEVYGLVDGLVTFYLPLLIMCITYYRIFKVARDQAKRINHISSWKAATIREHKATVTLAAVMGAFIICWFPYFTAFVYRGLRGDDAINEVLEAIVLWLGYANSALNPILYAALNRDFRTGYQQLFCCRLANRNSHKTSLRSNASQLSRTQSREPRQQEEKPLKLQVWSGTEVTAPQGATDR

[4] = target: 5-hydroxytryptamine receptor 6 (Homo sapiens, UniProt P50406)
Chain of 5-hydroxytryptamine receptor 6 (P50406 whole entry): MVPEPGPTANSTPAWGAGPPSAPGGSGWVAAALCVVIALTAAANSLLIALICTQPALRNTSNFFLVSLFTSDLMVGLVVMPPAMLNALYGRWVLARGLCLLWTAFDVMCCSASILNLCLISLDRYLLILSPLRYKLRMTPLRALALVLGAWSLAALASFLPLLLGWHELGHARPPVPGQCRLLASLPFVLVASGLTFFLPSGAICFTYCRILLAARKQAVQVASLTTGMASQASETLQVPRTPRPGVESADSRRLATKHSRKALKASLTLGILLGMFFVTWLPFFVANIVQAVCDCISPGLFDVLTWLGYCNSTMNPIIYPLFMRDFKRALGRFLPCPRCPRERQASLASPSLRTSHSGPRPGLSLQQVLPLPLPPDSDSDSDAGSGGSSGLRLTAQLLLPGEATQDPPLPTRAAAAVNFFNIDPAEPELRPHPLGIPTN

[5] = target: T4, Neuropeptide Y receptor type 2 (Homo sapiens, UniProt P49146)
T4 sequence (P49146 whole entry): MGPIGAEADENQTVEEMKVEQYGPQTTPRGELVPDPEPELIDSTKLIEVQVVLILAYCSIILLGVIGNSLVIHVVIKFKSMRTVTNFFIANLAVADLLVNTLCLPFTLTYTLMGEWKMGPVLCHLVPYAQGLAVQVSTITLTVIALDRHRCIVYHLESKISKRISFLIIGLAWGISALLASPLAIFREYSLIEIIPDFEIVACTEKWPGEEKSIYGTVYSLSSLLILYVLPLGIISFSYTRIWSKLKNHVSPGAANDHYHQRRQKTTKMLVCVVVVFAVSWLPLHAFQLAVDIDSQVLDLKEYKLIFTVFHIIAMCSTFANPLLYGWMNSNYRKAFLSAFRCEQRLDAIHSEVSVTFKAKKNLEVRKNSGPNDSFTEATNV

[6] = target: T5, 5-hydroxytryptamine receptor 1A (Homo sapiens, UniProt P08908)
T5 sequence (P08908 whole entry): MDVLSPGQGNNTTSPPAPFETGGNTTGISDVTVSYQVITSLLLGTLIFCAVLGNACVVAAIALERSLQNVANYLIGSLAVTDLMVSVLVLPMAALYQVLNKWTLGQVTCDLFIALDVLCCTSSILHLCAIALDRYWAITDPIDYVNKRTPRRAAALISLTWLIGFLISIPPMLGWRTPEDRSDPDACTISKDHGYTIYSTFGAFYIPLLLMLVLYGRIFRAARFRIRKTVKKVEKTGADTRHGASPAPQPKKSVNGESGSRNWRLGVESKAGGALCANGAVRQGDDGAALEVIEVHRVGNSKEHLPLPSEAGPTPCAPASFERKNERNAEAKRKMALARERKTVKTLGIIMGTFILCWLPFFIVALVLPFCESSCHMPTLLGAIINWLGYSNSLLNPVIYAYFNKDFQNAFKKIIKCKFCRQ

Estrogen receptor beta = Estrogen receptor beta (Homo sapiens, UniProt Q92731)
Chain of Estrogen receptor beta (Q92731 whole entry): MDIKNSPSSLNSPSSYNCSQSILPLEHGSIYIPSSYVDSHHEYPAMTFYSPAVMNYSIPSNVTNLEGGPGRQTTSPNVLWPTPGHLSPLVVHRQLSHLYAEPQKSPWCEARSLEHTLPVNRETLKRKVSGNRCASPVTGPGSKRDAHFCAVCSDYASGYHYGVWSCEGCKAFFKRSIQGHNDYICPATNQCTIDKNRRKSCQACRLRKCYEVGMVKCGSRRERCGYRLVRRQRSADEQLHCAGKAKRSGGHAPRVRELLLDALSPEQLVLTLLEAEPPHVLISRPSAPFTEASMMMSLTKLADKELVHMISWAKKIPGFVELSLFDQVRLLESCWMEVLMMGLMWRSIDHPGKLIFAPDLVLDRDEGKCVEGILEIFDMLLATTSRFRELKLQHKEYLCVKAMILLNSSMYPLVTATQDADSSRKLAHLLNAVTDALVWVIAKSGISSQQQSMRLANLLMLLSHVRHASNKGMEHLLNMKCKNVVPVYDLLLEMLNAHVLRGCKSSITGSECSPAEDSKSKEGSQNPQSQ
Further: assay procedure not described here.

Compound	AC50 (Androgen receptor) [µM]	AC50 [2] [µM]	AC50 (B1 bradykinin receptor) [µM]	AC50 [3] [µM]	AC50 (Histamine H2 receptor) [µM]	AC50 [5] [µM]	AC50 [6] [µM]	further results
CN(C)Cc1nnc2n1-c1ccc(Cl)cc1C(c1ccccc1)=NC2 [ADINAZOLAM]	> 10	–	–	–	–	–	–	–
CN(C)C/C=C/C(=O)Nc1cc2c(Nc3ccc(F)c(Cl)c3)ncnc2cc1O[C@H]1CCOC1 [AFATINIB]	–	–	–	–	–	–	–	AC50 [1]: > 30 µM
Cc1ccccc1-n1c(CF)nc2ccc(N)cc2c1=O [AFLOQUALONE]	> 30	–	–	–	–	–	–	–
O=C(/C=C/c1cccc(S(=O)(=O)Nc2ccccc2)c1)NO [BELINOSTAT]	> 30	> 30	> 10	> 10	> 10	> 10	> 10	AC50 (D(1A) dopamine receptor): > 30 µM; AC50 [4]: 2.47 µM
CC(O)(CS(=O)(=O)c1ccc(F)cc1)C(=O)Nc1ccc(C#N)c(C(F)(F)F)c1 (configuration not stated) [BICALUTAMIDE]	–	> 30	> 30	> 30	> 10	> 30	> 10	AC50 (Estrogen receptor beta): > 30 µM; AC50 [4]: > 10 µM
O=C(O)COCCN1CCN(C(c2ccccc2)c2ccc(Cl)cc2)CC1 (configuration not stated) [CETIRIZINE]	–	> 30	> 30	> 30	–	> 30	> 10	AC50 (Estrogen receptor beta): > 30 µM
NC[C@H]1CC[C@H](C(=O)Oc2ccc(CCC(=O)O)cc2)CC1 [CETRAXATE]	–	–	–	–	–	–	–	AC50 (D(1A) dopamine receptor): > 30 µM
CC(=O)O[C@]1(C(C)=O)CC[C@H]2[C@@H]3C=C(Cl)C4=CC(=O)[C@@H]5C[C@@H]5[C@]4(C)[C@H]3CC[C@@]21C [CYPROTERONE ACETATE]	–	> 30	–	–	> 10	–	> 10	–
C[C@@H]1C[C@H]2[C@@H]3C[C@H](F)C4=CC(=O)C=C[C@]4(C)[C@@]3(F)[C@@H](O)C[C@]2(C)[C@@]1(OC(=O)c1ccco1)C(=O)SCF [FLUTICASONE FUROATE]	–	–	> 10	> 10	> 10	> 10	> 10	AC50 [4]: > 10 µM
COc1ccc([C@@H]2CC(=O)c3c(O)cc(O)cc3O2)cc1O [HESPERETIN]	> 10	–	–	–	–	–	–	–
CNCCc1ccc(OC(=O)C(C)C)c(OC(=O)C(C)C)c1 [IBOPAMINE]	–	–	–	–	–	–	–	AC50 [1]: > 30 µM
CN(C)CCCN1c2ccccc2CCc2ccccc21 [IMIPRAMINE]	–	> 30	> 30	> 30	0.0697	> 30	> 10	AC50 (Estrogen receptor beta): > 30 µM; AC50 [4]: 0.313 µM
C=C1c2cccc(O)c2C(=O)C2=C(O)[C@]3(O)C(=O)C(C(N)=O)=C(O)[C@@H](N(C)C)[C@@H]3[C@@H](O)[C@H]12 [METHACYCLINE]	> 30	–	–	–	–	–	–	–
CN(Cc1cnc2nc(N)nc(N)c2n1)c1ccc(C(=O)N[C@@H](CCC(=O)O)C(=O)O)cc1 [METHOTREXATE]	> 30	> 30	> 30	> 30	> 10	> 30	> 10	AC50 (Estrogen receptor beta): > 30 µM
OC[C@H]1O[C@@H](n2cnc3c2NC=NC[C@H]3O)C[C@@H]1O [PENTOSTATIN]	–	–	–	–	–	–	–	AC50 [1]: > 30 µM
CN[C@@H](C)[C@@H](O)c1ccccc1 [PSEUDOEPHEDRINE]	–	> 30	> 30	> 30	> 10	> 30	> 10	AC50 (Estrogen receptor beta): > 30 µM
O=C1OC(OC(=O)c2cccnc2Nc2cccc(C(F)(F)F)c2)c2ccccc21 (configuration not stated) [TALNIFLUMATE]	–	–	–	–	–	–	–	AC50 [1]: > 30 µM
O=S1(=O)CCN(CN2CCS(=O)(=O)NC2)CN1 [TAUROLIDINE]	–	–	–	–	–	–	–	AC50 (D(1A) dopamine receptor): > 30 µM; AC50 [1]: > 30 µM
COc1ccc2c(C(=S)N(C)CC(=O)O)cccc2c1C(F)(F)F [TOLRESTAT]	–	–	–	–	–	–	–	AC50 (D(1A) dopamine receptor): > 30 µM
